From patent US20260297060A1, “COMPOUNDS FOR THE DEGRADATION OF MUTANT BRAF” (C4 THERAPEUTICS, INC., priority 2023, published 2026) come the findings set out here.

Read-outs that look alike come from different tables or passages of the source.

One assay deals with T1, BRAF V600E (Homo sapiens, UniProt P15056+Q96SW2, V600E).
T1 construct: knock-in of the HiBiT tag to the endogenous BRAF V600E locus; host or cells: A375.10 (A375 clonal line, CRISPR HiBiT knock-in at the endogenous BRAF V600E locus)
T1 sequence (P15056 whole entry V600E): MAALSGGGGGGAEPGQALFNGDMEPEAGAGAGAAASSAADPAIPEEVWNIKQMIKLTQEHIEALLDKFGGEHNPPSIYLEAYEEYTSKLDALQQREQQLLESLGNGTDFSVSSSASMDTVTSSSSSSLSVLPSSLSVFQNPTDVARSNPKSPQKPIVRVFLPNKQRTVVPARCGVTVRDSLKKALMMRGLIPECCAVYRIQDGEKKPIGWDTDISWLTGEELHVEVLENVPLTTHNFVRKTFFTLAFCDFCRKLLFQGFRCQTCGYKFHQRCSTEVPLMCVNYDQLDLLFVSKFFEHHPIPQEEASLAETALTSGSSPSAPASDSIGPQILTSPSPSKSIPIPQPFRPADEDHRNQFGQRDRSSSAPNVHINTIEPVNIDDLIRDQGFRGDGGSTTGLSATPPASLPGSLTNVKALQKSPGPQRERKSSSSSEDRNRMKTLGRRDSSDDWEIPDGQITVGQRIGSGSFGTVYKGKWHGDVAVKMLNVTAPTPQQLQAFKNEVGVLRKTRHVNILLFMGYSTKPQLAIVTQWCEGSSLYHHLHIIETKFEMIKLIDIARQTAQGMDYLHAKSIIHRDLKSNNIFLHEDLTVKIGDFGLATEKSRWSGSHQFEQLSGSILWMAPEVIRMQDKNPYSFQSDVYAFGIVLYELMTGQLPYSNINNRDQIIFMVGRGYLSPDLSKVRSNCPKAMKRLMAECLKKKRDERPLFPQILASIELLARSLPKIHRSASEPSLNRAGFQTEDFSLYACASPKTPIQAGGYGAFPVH
T1 sequence (Q96SW2 whole entry): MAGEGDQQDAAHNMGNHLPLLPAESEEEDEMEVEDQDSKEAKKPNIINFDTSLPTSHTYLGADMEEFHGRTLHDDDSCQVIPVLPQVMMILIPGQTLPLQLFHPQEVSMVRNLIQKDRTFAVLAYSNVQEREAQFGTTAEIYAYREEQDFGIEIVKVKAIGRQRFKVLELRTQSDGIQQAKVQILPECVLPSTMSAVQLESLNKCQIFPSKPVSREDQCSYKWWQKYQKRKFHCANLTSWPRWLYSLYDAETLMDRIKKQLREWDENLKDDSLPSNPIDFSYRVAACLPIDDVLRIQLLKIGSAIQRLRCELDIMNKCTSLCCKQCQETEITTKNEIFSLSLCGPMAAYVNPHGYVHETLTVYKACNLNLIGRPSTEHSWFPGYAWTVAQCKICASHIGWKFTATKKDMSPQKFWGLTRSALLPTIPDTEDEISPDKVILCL
T1 sequence (Q16531 whole entry partner): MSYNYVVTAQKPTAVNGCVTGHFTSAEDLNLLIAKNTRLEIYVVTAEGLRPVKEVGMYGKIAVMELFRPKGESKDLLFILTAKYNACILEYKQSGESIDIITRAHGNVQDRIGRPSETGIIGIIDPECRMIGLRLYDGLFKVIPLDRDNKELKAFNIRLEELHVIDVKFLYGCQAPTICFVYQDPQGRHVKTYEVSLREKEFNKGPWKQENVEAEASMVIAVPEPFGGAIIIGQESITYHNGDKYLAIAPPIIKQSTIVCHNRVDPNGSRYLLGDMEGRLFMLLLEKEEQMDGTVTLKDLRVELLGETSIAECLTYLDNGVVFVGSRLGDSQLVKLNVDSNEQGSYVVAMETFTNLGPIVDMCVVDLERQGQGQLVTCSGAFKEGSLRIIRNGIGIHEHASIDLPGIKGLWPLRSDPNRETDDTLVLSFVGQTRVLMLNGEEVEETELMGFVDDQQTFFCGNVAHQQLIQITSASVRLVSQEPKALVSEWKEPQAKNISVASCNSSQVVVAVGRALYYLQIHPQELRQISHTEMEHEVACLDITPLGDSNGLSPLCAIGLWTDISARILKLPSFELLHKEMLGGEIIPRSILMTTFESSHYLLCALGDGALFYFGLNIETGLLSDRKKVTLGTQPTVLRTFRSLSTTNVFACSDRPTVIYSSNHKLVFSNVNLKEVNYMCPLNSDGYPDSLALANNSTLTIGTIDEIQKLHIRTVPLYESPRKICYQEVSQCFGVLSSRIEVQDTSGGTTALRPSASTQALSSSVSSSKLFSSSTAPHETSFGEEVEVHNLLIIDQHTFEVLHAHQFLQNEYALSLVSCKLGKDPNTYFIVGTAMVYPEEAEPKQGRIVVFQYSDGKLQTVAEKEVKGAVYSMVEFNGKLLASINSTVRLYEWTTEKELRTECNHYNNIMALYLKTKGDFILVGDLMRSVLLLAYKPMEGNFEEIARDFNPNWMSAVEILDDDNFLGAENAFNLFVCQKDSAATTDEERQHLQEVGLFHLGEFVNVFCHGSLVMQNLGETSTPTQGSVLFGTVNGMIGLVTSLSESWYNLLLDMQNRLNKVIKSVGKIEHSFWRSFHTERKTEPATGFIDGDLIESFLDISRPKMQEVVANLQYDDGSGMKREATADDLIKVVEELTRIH
Put plainly: BRAF V600E HiBiT Degradation Assay. It counts as cell-based. The procedure:
Compounds of this invention were tested for degradation of mutant BRAF V600E using the HiBiT assay, a luminescence-based assay for quantification of cellular protein levels using the Nano-Glo® HiBiT Lytic Detection System (Catalog No. N3050, Promega, Madison, WI USA). This assay utilizes the HiBiT tag on a protein of interest, which creates a luminescent signal in the presence of a complementing peptide and its substrate, the quantification of which is proportional to the amount of HiBiT-tagged protein in the cell.
The cell line A375, which is homozygous for the BRAF V600E mutation, was purchased from ATCC (Catalog No. CRL-1619, Manassas, VA, USA). A375 cells were engineered to express HiBiT tagged BRAF V600E by CRISPR knock-in of the HiBiT tag to the endogenous BRAF V600E locus, followed by selection of a clonal population containing the appropriate knock-in (referred to here as cell line A375.10). A375.10 cells were maintained at 37° C. in an atmosphere of 5% CO2 in Dulbecco's modified Eagle Medium (DMEM) with high glucose (Catalog No. 11965092), supplemented with 10% fetal bovine serum (FBS; Catalog No. 10437036), and 10 mM HEPES (Catalog No. 15630130), all obtained from Thermofisher Scientific (Waltham, MA, USA). Cell culture flasks and 384-well microplates were acquired from VWR (Radnor, PA, USA).
Test compounds were prepared by dissolving neat compounds in DMSO (Catalog No. D8418, Sigma-Aldrich, Inc., St. Louis, MO, USA) to generate 10 mM stock solutions, which were serially diluted (half log) in DMSO to generate an 11-point dose series (1000× final treatment concentration) in a 384-Well Low Dead Volume Microplate (Catalog No. LP-0200, Labcyte, San Jose, CA, USA). Using the Echo 550 Acoustic Liquid Handler (Labcyte), 30 nL of serially diluted compound solutions were dispensed in duplicate to 384-well TC-treated microplates (Catalog No. 3571, Corning, Glendale, CA, USA) and 30 nL of DMSO was dispensed to control wells. A375.10 cells resuspended in growth media without phenol red (Catalog No. 21063-029, Thermofisher Scientific) were then added to 384-well plates containing the 11-point dose series of compounds in duplicate (maximum 10 μM concentration for final treatment) at a density of 12,000 cells/well in 30 μl. Plates were then spun briefly, and cells were incubated with compound at 37° C. for 2 hours, 6 hours, or 24 hours.
Following the appropriate treatment time, Nano-Glo® HiBiT Lytic Assay reagents were added to the cells per the manufacturer's instructions by adding 30 μl of reagent per well, and the luminescence signal was acquired by plate reader. Cells treated with DMSO only (no test compound treatment) were used as the negative control (N). Media only (no cells added) with Nano-Glo reagent addition was used as the background or positive control (P). The percent response of compound treated samples were calculated by subtracting out the background signal (P) and normalizing to the DMSO control (N) as follows.
% Response=100×(Treated Signal−Average (P))/(Average (N)−Average (P)).
Data were analyzed with a 4-parameter logistic fit to generate sigmoidal dose-response curves. The DC50 is the concentration of compound at which 50% of the cellular BRAF V600E has been degraded. The Emax, or maximum effect of each compound, represents the amount of residual protein remaining in the cell following compound treatment. The IP, or inflection point of the dose-response curve, is the concentration of compound at which 50% of the observed degradation response is achieved.
The experiment was conducted at least once for each compound. If the experiment was conducted multiple times, the data shown in the table is the average of the two or more experiments.
On the technique in general: With HiBiT, luminescence reflects the tagged protein that the partner subunit can reach.

The test system of the next assay is A375-NRAS^Q61K cells. Put plainly: CTGlo Cell Viability Assay, A375-NRAS^Q61K (A375.11) cells, 96 hours. The settings on record: A375.11 (A375-NRAS^Q61K) cells. It counts as cell-based, human. The procedure:
Compounds of this invention were tested for their effect on the viability of A375-NRAS^Q61K cells by quantification of ATP using the CellTiter-Glo® 2.0 Cell Viability Assay (Catalog No. G9243, Promega, Madison, WI, USA). This assay produces a luminescent signal in the presence of ATP, which is indicative of metabolically active cells, making the luminescence readout proportional to the number of viable cells.
A375-NRAS^Q61K cells (harboring BRAF homozygous V600E mutation and NRAS homozygous Q61K mutation) were purchased from ATCC (Catalog No. CRL-1619IG-2, Manassas, VA, USA). A375-NRAS^Q61K cells (also referred to here as A375.11) were maintained at 37° C. in an atmosphere of 5% CO2 in Dulbecco's modified Eagle Medium (DMEM) with high glucose (Catalog No. 11965092), supplemented with 10% fetal bovine serum (FBS; Catalog No. 10437036), and 10 mM HEPES (Catalog No. 15630130), all obtained from Thermofisher Scientific (Waltham, MA, USA). Cell culture flasks and 384-well microplates were acquired from VWR (Radnor, PA, USA).
Test compounds were prepared by dissolving neat compounds in DMSO (Catalog No. D8418, Sigma-Aldrich, Inc., St. Louis, MO, USA) to generate 10 mM stock solutions, which were serially diluted (half log) in DMSO to generate an 11-point dose series (1000× final treatment concentration) in a 384-Well Low Dead Volume Microplate (Catalog No. LP-0200, Labcyte, San Jose, CA, USA). Using the Echo 550 Acoustic Liquid Handler (Labcyte), 50 nL of serially diluted compound solutions were dispensed in duplicate to 384-well TC-treated microplates (Catalog No. 3571, Corning, Glendale, CA, USA) and 50 nL of DMSO was dispensed to control wells. A375-NRAS^Q61K cells were resuspended in growth media and added to 384-well plates containing a […] of compounds in duplicate (maximum 10 μM concentration for final treatment) at a density of 250 cells/well in 50 μl. Cells were also plated to a 384-well plate with no compound treatment, to which CellTiter-Glo® reagent was added and luminescence was read right after plating to act as a baseline signal at time of plating (To). Plates treated with compound were then spun briefly, and cells were incubated with compound at 37° C. for 96 hours.
After 96 hours compound treatment, CellTiter-Glo® reagent was added to the cells at 25 μl per well and luminescence was read out on the PHERAstar plate reader (BMG Labtech, Ortenberg, Germany). Cells treated with DMSO only (no test compound treatment) were used as the negative control (N). DMSO treated cells with no CellTiter-Glo® reagent added were used as the background or positive control (P). Viability was determined by subtracting out the average background signal (P) and normalized to the average untreated signal (N) set at 100%.
Data were analyzed with a 4-parameter logistic fit to generate sigmoidal dose-response curves. The half-maximal inhibition of cell growth (GI50) is the concentration at which the fitted curve crosses 50%. The Emax, or maximum effect of each compound, represents the lowest % viability achieved following compound treatment.

Where [1] appears, read: A375.10 cells, BRAF V600E, 2 hours, inflection point, read-out: HiBiT-Degradation A375.10 BRAF 2 hours IP.
The mark [2] stands for this setting: A375.10 cells, BRAF V600E, 2 hours, read-out: HiBiT-Degradation A375.10 BRAF 2 hours DC50.
[3] abbreviates: A375.10 cells, BRAF V600E, 2 hours, residual protein remaining, read-out: HiBiT-Degradation A375.10 BRAF 2 hours Emax.
Where [4] appears, read: Homo sapiens, 96 h, lowest % viability achieved.

On to `CCN(C)S(=O)(=O)Nc1ccc(F)c(Oc2ccc3ncc(CC4CCN(C5CCC(c6cc7c(cc6F)c(N6CCC(=O)NC6=O)nn7C)CC5)CC4)nc3c2)c1C#N` (single isomer, unassigned) [Compound 149, 7-[2-cyano-3-[[ethyl(methyl)sulfamoyl]amino]-6-fluoro-phenoxy]-2-[[1-[4-[3-(2,4-dioxohexahydropyrimidin-1-yl)-5-fluoro-1-methyl-indazol-6-yl]cyclohexyl]-4-piperidyl]methyl]quinoxaline], for which the DC50 on BRAF V600E (setting [1]) and at BRAF V600E (setting [2]) was less than 1000 nM throughout. The results for the Emax on BRAF V600E (setting [3]) and in the assay on A375-NRAS^Q61K cells (setting [4]) were less than 50% and 50 to 90%, respectively. Further, in the assay with A375-NRAS^Q61K cells (Homo sapiens, 96 h), the GI50 (commonly the concentration that inhibits growth by half) was greater than 10000 nM.

`CCN(C)S(=O)(=O)Nc1ccc(F)c(Oc2ccc3ncn([C@H]4C[C@@H]5CN(C6CCC(c7cc8c(cc7F)c(N7CCC(=O)NC7=O)nn8C)CC6)C[C@@H]5C4)c(=O)c3c2)c1C#N` (single isomer, unassigned) [Compound 15]: the DC50 on BRAF V600E (setting [1]) and at BRAF V600E (setting [2]) was less than 1000 nM in each case. In addition, the Emax at BRAF V600E (setting [3]) and in the assay on A375-NRAS^Q61K cells (setting [4]) was 50 to 90% throughout. Further, the GI50 in the assay with A375-NRAS^Q61K cells (Homo sapiens, 96 h) is greater than 10000 nM.

In the case of `CCN(C)S(=O)(=O)Nc1ccc(F)c(Oc2ccc3ncn([C@@H]4CO[C@]5(CCN(C6CCC(c7cc8c(cc7F)c(N7CCC(=O)NC7=O)nn8C)CC6)C5)C4)c(=O)c3c2)c1C#N` (single isomer, unassigned) [Compound 291], the DC50 at BRAF V600E (setting [1]) was less than 1000 nM; on BRAF V600E (setting [2]), greater than 10000 nM. Further, on BRAF V600E (A375.10 cells, BRAF V600E, 2 hours, residual protein remaining), the “HiBiT-Degradation A375.10 BRAF 2 hours Emax” value is “** (<90% and >50%)”. In the assay on A375-NRAS^Q61K cells, this molecule yielded a concentration for 50% growth inhibition (GI50) of 1000 to 10000 nM. Moreover, in the assay on A375-NRAS^Q61K cells (lowest % viability achieved), the “CTGlo A375.11 96 hours Emax” value is listed as “* (>=90%)”.

For `Cn1nc(N2CCC(=O)NC2=O)c2cc(F)c(N3CC4(CC(N5CCC6(CC5)C[C@@H](n5cnc7ccc(Oc8c(F)ccc(NS(=O)(=O)N9CCC%10(CC%10)C9)c8C#N)cc7c5=O)CO6)C4)C3)cc21` [Compound 245, N-[2-cyano-3-[3-[(3R)-8-[2-[3-(2,4-dioxohexahydropyrimidin-1-yl)-5-fluoro-1-methyl-indazol-6-yl]-2-azaspiro[3.3]heptan-6-yl]-1-oxa-8-azaspiro[4.5]decan-3-yl]-4-oxo-quinazolin-6-yl]oxy-4-fluoro-phenyl]-5-azaspiro[2.4]heptane-5-sulfonamide], the Emax on BRAF V600E (setting [3]) and in the assay with A375-NRAS^Q61K cells (setting [4]) was 50 to 90% each time. Moreover, the DC50 at BRAF V600E (read-out: HiBiT-Degradation A375.10 BRAF 2 hours DC50, A375.10 cells, BRAF V600E, 2 hours) is less than 1000 nM; on BRAF V600E (read-out: HiBiT-Degradation A375.10 BRAF 2 hours IP, A375.10 cells, BRAF V600E, 2 hours, inflection point), less than 1000 nM. The molecule also came in with a GI50 in the assay on A375-NRAS^Q61K cells (Homo sapiens, 96 h) of less than 1000 nM.

In the case of `CCN(C)S(=O)(=O)Nc1ccc(F)c(C(=O)c2ccc3ncn([C@H]4COC5(CCN(C6CCC(c7cc8c(cc7F)c(N7CCC(=O)NC7=O)nn8C)CC6)CC5)C4)c(=O)c3c2)c1F` (stereo partly drawn) [Compound 208, (3R)-8-[4-[3-(2,4-dioxohexahydropyrimidin-1-yl)-5-fluoro-1-methyl-indazol-6-yl]cyclohexyl]-3-[6-[3-[[ethyl(methyl)sulfamoyl]amino]-2,6-difluoro-benzoyl]-4-oxo-quinazolin-3-yl]-1-oxa-8-azaspiro[4.5]decane], the DC50 on BRAF V600E (setting [1]) and on BRAF V600E (setting [2]) was less than 1000 nM in each case. The Emax is less than 50% on BRAF V600E (read-out: HiBiT-Degradation A375.10 BRAF 2 hours Emax, A375.10 cells, BRAF V600E, 2 hours, residual protein remaining) and 50 to 90% with A375-NRAS^Q61K cells (setting [4]). In the assay on A375-NRAS^Q61K cells (Homo sapiens, 96 h), the GI50 was less than 1000 nM.

Turning to `CCN(C)S(=O)(=O)Nc1ccc(F)c(Oc2ccc3ncc(CCC4CCN(C5CCC(c6ccc(NC7CCC(=O)NC7=O)cc6F)CC5)CC4)nc3c2)c1C#N` (single isomer, unassigned) [Compound 131, 7-[2-cyano-3-[[ethyl(methyl)sulfamoyl]amino]-6-fluoro-phenoxy]-2-[2-[1-[4-[4-[(2,6-dioxo-3-piperidyl)amino]-2-fluoro-phenyl]cyclohexyl]-4-piperidyl]ethyl]quinoxaline], the DC50 on BRAF V600E (setting [1]) is less than 1000 nM; on BRAF V600E (setting [2]) it was greater than 10000 nM. Also, the Emax on BRAF V600E (setting [3]) and in the assay with A375-NRAS^Q61K cells (setting [4]) was 50 to 90% each time. The molecule also came in with a 50% growth inhibitory concentration (GI50) with A375-NRAS^Q61K cells greater than 10000 nM.

With `CCN(C)S(=O)(=O)Nc1ccc(F)c(Oc2ccc3ncc(C4CC5(C4)CN(C4CC6(C4)CN(c4cc7c(cc4F)c(N4CCC(=O)NC4=O)nn7C)C6)C5)nc3c2)c1C#N` (centres unmarked) [Compound 303, 7-[2-cyano-3-[[ethyl(methyl)sulfamoyl]amino]-6-fluoro-phenoxy]-2-[2-[2-[3-(2,4-dioxohexahydropyrimidin-1-yl)-5-fluoro-1-methyl-indazol-6-yl]-2-azaspiro[3.3]heptan-6-yl]-2-azaspiro[3.3]heptan-6-yl]quinoxaline], the DC50 at BRAF V600E (setting [1]) was less than 1000 nM; on BRAF V600E (setting [2]) it was 1000 to 10000 nM. Also, the Emax at BRAF V600E (setting [3]) and with A375-NRAS^Q61K cells (setting [4]) was 50 to 90% in each case. In the assay with A375-NRAS^Q61K cells (Homo sapiens, 96 h), this molecule came in with a GI50 greater than 10000 nM.
